Where two headings read alike, the source gives them in different places.
Tests used:
[1] = target: T1, truncated human 11β-HSD-1 enzyme (24-287AA) (Homo sapiens, UniProt P28845); experiment: Human 11β-HSD-1 enzymatic SPA assay; assay type: biochemical
T1 construct: truncated human 11β-HSD-1 enzyme (24-287AA); made in house; host or cells: E. coli (lysate)
Procedure: (§1) The ability of test compounds to inhibit human 11β-HSD-1 enzymatic activity in vitro was evaluated in a Scintillation Proximity Assay (SPA). […] The reaction was stopped by adding a non-specific 11β-HSD inhibitor, 18β-glycyrrhetinic acid. The tritiated cortisol was captured by a mixture of an anti-cortisol monoclonal antibody and SPA beads coated with anti-mouse antibodies. The reaction plate was shaken at room temperature and the radioactivity bound to SPA beads was then measured on a β-scintillation counter. The 11β-HSD-1 assay was carried out in 96-well microtiter plates in a total volume of 220 μl. […] In order to drive the reaction in the forward direction, 1 mM G-6-P was also added. Solid compound was dissolved in DMSO to make a 10 mM stock followed by a subsequent 10-fold dilution with 3% DMSO in Tris/EDTA buffer (pH 7.4). 22 μl of titrated compounds was then added in triplicate to the substrate. Reactions were initiated by the addition of 10 μl of 0.1 mg/ml E. coli lysates overexpressing 11β-HSD-1 enzyme. After shaking and incubating plates for 30 minutes at room temperature, reactions were stopped by adding 10 μl of 1 mM glycyrrhetinic acid. The product, tritiated cortisol, was captured by adding 10 μl of 1 μM monoclonal anti-cortisol antibodies and 100 μl SPA beads coated with anti-mouse antibodies. After shaking for 30 minutes, plates were read on a liquid scintillation counter Topcount. Percent inhibition was calculated based on the background and the maximal signal. Wells that contained substrate without compound or enzyme were used as the background, while the wells that contained substrate and enzyme without any compound were considered as maximal signal. Percent of inhibition of each compound was calculated relative to the maximal signal and IC50 curves were generated. This assay was applied to 11β-HSD-2 as well, whereby tritiated cortisol and NAD^+ were used as substrate and cofactor, respectively.

[2] = target: T2, human 11β-HSD-2 (Homo sapiens, UniProt P80365); experiment: Human 11β-HSD-2 enzymatic SPA assay; assay type: biochemical; conditions: human enzyme, SPA
T2 sequence (P80365 1-405): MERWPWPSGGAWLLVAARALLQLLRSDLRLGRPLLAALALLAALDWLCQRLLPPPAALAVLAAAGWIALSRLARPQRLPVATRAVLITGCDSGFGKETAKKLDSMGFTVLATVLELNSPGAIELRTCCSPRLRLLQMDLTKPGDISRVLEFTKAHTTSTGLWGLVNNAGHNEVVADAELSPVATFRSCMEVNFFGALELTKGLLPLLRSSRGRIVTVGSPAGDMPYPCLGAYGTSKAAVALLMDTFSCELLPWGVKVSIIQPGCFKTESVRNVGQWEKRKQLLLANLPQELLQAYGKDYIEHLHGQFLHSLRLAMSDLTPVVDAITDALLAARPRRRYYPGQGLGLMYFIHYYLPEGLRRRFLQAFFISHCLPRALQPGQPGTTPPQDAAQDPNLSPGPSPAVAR
Procedure: as §1

T1 sequence (P28845 24-287): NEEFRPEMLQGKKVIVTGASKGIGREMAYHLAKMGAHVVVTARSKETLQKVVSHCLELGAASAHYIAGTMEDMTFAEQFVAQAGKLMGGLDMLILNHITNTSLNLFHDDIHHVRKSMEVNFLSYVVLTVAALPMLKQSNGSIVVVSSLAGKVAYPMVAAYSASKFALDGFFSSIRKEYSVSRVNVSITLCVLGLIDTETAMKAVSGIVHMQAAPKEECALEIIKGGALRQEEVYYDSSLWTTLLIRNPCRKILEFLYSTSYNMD

SMILES	IC50 ([1]; human enzyme, SPA) [nM]	IC50 [2] [nM]	IC50 [1] [nM]
CC(C)(C(=O)NC1C2CC3CC1CC(C(N)=O)(C3)C2)N1CCN(c2cnccn2)CC1 (stereo not shown) [(E)-4-{[2-methyl-2-(4-pyrazin-2-ylpiperazin-1-yl)propanoyl]amino}adamantane-1-carboxamide]	35	> 30000	
CC(C)(C(=O)N[C@@H]1[C@@H]2C[C@@H]3C[C@H]1C[C@@](C(N)=O)(C3)C2)N1CCN(c2ccccn2)CC1 [(E)-4-{[2-methyl-2-(4-pyridin-2-ylpiperazin-1-yl)propanoyl]amino}adamantane-1-carboxamide]	37	> 30000	
CC(C)(Oc1ccc(Cl)cc1)C(=O)N[C@@H]1[C@@H]2C[C@@H]3C[C@H]1C[C@@](CC(N)=O)(C3)C2 [N-[(E)-5-(2-amino-2-oxoethyl)-2-adamantyl]-2-(4-chlorophenoxy)-2-methylpropanamide]	43	21000	
CC(C)(Oc1ccc(F)cc1Cl)C(=O)N[C@@H]1[C@@H]2C[C@@H]3C[C@H]1C[C@@](S(N)(=O)=O)(C3)C2 [N-[(E)-5-(aminosulfonyl)-2-adamantyl]-2-(2-chloro-4-fluorophenoxy)-2-methyl-propanamide]	89	> 100000	
O=C(CN1CCN(c2ccc(C(F)(F)F)cn2)CC1)NC1C2CC3CC1CC(F)(C3)C2 (stereo not shown) [N-[(E)-5-fluoro-2-adamantyl]-2-{4-[5-(trifluoromethyl)pyridin-2-yl]piperazin-1-yl}acetamide]		> 10000	140
CC(C(=O)NC1C2CC3CC1CC(NS(C)(=O)=O)(C3)C2)N1CCN(c2ccc(C(F)(F)F)cn2)CC1 (stereo not shown) [N-{(E)-5-[(methylsulfonyl)amino]-2-adamantyl}-2-{4-[5-(trifluoromethyl)pyridin-2-yl]piperazin-1-yl}propanamide]	67	> 30000	
O=C(CN1CCN(c2ccc(C(F)(F)F)cn2)CC1)N[C@H]1[C@@H]2C[C@@H]3C[C@H]1C[C@@](F)(C3)C2 [N—[(Z)-5-fluoro-2-adamantyl]-2-{4-[5-(trifluoromethyl)pyridin-2-yl]piperazin-1-yl}acetamide]		> 10000	82
CC(C)(C(=O)N[C@@H]1[C@@H]2C[C@@H]3C[C@H]1C[C@@](CC(=O)O)(C3)C2)N1CCN(c2ccc(C(F)(F)F)cn2)CC1 [{(E)-4-[(2-methyl-2-{4-[5-(trifluoromethyl)pyridin-2-yl]piperazin-1-yl}propanoyl)amino]-1-adamantyl}acetic acid]	80	> 10000	

Reference: patent publication US8871208B2, “11-β-hydroxysteroid dehydrogenase type 1 (11β-HSD1) inhibitors and uses thereof” (AbbVie Inc., priority 2009, dated 2014)
